# Legend:
# [1] = tested on: 60-human transformed cell lines; assay: NCI 60-cell line growth inhibition assay (whole panel); format: cell-based; conditions: range over 60 cell lines
# implanted tumors = assay: Efficacy study: delay in growth of implanted tumors, regressions, tumor-free survivors; format: in vivo, athymic mice
# Procedure: The following data in Table 9 summarize the in vivo properties of several compounds of the current invention. The protocol for the experiment is as follows. The dose-range finding study consists of four groups of three athymic mice each (four dose levels.) The compound is administered on the basis of individual animal body weight. The route is intraperitoneal (IP) and the treatment schedule is daily for 14 days (qd×14) or once every 4 days for 12 days (q4d×3).
# The efficacy study consists of three compound-treated groups (six mice/group), a positive control-treated group (six mice), and a vehicle-treated control group of 12 mice. Test compounds were administered IP under the treatment schedules listed above (qd×14 or q4d×3), whereas the positive control agent (Taxol) was administered intravenously (IV) at a dosage level of 15 mg/kg/dose for five consecutive days (qd×5). All agents were administered on the basis of individual animal body weight. Treatment began when the implanted tumors were approximately 100 mg in size (range of 65 to 200 mg). The mice were observed daily for survival. Each tumor was measured by caliper in two dimensions and converted to tumor mass using the formula for a prolate ellipsoid (a×b^2/2) and assuming unit density. Tumor measurements and animal body weights were recorded twice weekly. Antitumor activity was assessed by the delay in tumor growth of the treated groups in comparison to the vehicle-treated control group, partial and complete regressions, and tumor-free survivors.
SMILES,GI50 [1] [µM],T-C (implanted tumors; 0.27 mg/kg IP q4d × 3) [days],Tumor free/total (implanted tumors; 0.27 mg/kg IP q4d × 3),T-C (implanted tumors; 0.4 mg/kg IP q4d × 3) [days],Tumor free/total (implanted tumors; 0.4 mg/kg IP q4d × 3),T-C (implanted tumors; 0.6 mg/kg IP q4d × 3) [days],Tumor free/total (implanted tumors; 0.6 mg/kg IP q4d × 3)
"Cn1cnc2c(NCc3ccccc3)nc(NCCO)nc21 [Olomoucine, reference compound]",20 to 100,,,,,,
CC(C)n1cnc2c(NCc3ccc(-c4ccsc4)cc3)nc(N[C@H]3CC[C@H](N)CC3)nc21 [Compound 12],,1.2,0/6,0.2,0/6,0.3,0/6
